Data published in patent publication US6723716B1, “7-acylamino-3-heteroarylthio-3-cephem carboxylic acid antibiotics and prodrugs thereof” (Essential Therapeutics, Inc., priority 1999, dated 2004).
In brackets after ≈: the same amount, converted by molar mass.

Columns and labels:
[1] = system: S. aureus ATCC29213; assay: Human serum binding effect: MIC with and without human serum; assay type: cell-based, Staphylococcus aureus; settings: 1:1 human serum:MHB
Procedure: The approximate measurement of the degree of binding of the compound to human serum proteins can be achieved by determination of the effect of the addition of human serum to the medium in which the MIC values against a selected bacterial strain is determined. The ratio of the MIC value obtained in presence of added human serum to the MIC value determined without serum addition was used as a measure of serum binding and the results of such determination are presented below in Table 2.
In addition to the standard MIC determination described above, the staphylococcal strain ATCC29213 is also tested in a ratio 1:1, human serum:MHB to obtain a preliminary estimate of the bioactivity of test compounds in serum: The assay was performed in Human Serum and Mueller-Hinton Broth (HSMHB) with a final bacterial inoculum of 1×10^6 CFU/mL (from an early-log phase culture) and a final volume of 100 μL. Control drugs, including imipenem, vancomycin, dicloxacillin, and new compounds were prepared in double-concentrated Mueller-Hinton broth at a concentration equivalent to 4-fold the desired final concentration. Dilution of compounds were prepared directly in the plates by serial 2-fold dilution in double-concentrated Mueller-Hinton using a multichannel pipette. Positive and negative growth controls were included in each plate. […] The inoculum was prepared by diluting the early log-phase (1 h) culture 1:100 with fresh double-concentrated Mueller-Hinton broth. A volume of 25 μL of the inoculum was added to each well. […] The exact inoculum was determined by applying 10 μl of 10-fold serial dilution of the bacterial suspension on TSA. After overnight incubation at 35° C., colony forming units were manually counted.

[2] = system: S. haemolyticus 05 (Meth^R); assay: Broth microdilution MIC (NCCLS); assay type: cell-based; settings: Staphylococcus haemolyticus
Procedure: (§1) Compounds were evaluated for antimicrobial activity against a panel of bacterial strains using a broth microdilution assay performed as recommended by the NCCLS (1). The minimum inhibitory concentration (MIC) was defined as the lowest concentration of drug which prevented the growth of the bacteria.
(§2) For this primary panel, the assay was performed in Mueller-Hinton Broth (MHB) with a final bacterial inoculum of 5×10^5 CFU/mL (from an early-log phase culture) and a final volume of 100 μL. Control drugs, including imipenem, vancomycin, Penicillin G, dicloxacillin (vs. MSSA ATCC29213 only), and new compounds were prepared at a concentration equivalent to 2-fold the desired final concentration. Dilution of compounds were prepared directly in the plates by serial 2-fold dilution using a multichannel pipette. Positive and negative growth control were included in each plate.
(§3) The bacterial inocula were prepared as follows. For each strain one isolated colony was used to inoculate a volume of 8 mL of Mueller-Hinton broth and these cultures were incubated overnight (20 h) at 35° C. in a shaking incubator. At the exception of Enterococcus strains, culture were then diluted 1:10 and allowed to grow for an additional one hour at 35° C. in a shaking incubator. The inocula were prepared by diluting the early log-phase (1 h) cultures 1:1000 with fresh Mueller-Hinton broth. E. faecium and E. faecalis were prepared by diluting overnight cultures 1:333 and 1:666, respectively, with fresh Mueller-Hinton broth. A volume of 50 μL of the inocula was added to each well. […] The exact inocula were determined by applying 10 μL of 10-fold serial dilution of the bacterial suspensions on TSA. After overnight incubation at 35° C., colony forming units were manually counted.
(§4) Microtiter plates were incubated during 24 h at 35° C. and were read using a microtiterplate reader (Molecular Devices) at 650 nm as well as by visual observation using a microtiterplate reading mirror.

[3] = system: E. faecium ATCC 35667; assay: Broth microdilution MIC (NCCLS); assay type: cell-based; settings: Enterococcus faecium, ATCC35667
Procedure: as §1, §2, §3, §4

[4] = system: E. faecium VanA (Van^R); assay: Broth microdilution MIC (NCCLS); assay type: cell-based; settings: Enterococcus faecium
Procedure: as §1, §2, §3, §4

[5] = system: S. aureus ATCC 33593 (Meth^R); assay: Broth microdilution MIC (NCCLS); assay type: cell-based; settings: Staphylococcus aureus, ATCC33593
Procedure: as §1, §2, §3, §4

[6] = system: S. aureus ATCC 13709 (Meth^S); assay: Broth microdilution MIC (NCCLS); assay type: cell-based; settings: Staphylococcus aureus, ATCC13709, S. aureus ATCC 13709 (Meth^S); read-out: MIC
Procedure: as §1, §2, §3, §4

[7] = system: S. aureus Spain #356 (Meth^R); assay: Broth microdilution MIC (NCCLS); assay type: cell-based; settings: Staphylococcus aureus, 24 h
Procedure: as §1, §2, §3, §4

[8] = system: E. faecalis VanB (Van^R); assay: Broth microdilution MIC (NCCLS); assay type: cell-based; settings: Enterococcus faecalis
Procedure: as §1, §2, §3, §4

[9] = system: E. coli ATCC25992; assay: Broth microdilution MIC (NCCLS); assay type: cell-based; settings: Escherichia coli
Procedure: as §1, §2, §3, §4

[10] = system: S. aureus PC1 (Meth^S)(lac^+); assay: Broth microdilution MIC (NCCLS); assay type: cell-based; settings: Staphylococcus aureus
Procedure: as §1, §2, §3, §4

[11] = system: S. aureus ATCC 13709 (Smith diffuse); assay: Murine lethal bacteremic peritonitis (septicemia) efficacy; assay type: in vivo, mice; settings: Staphylococcus aureus, ATCC13709, sc, read-out: Efficacy in murine septicemia % survival
Procedure: 10 mice/group were injected intraperitoneally with 2.98×10^7 cfu S. aureus ATCC 13709 (Smith diffuse) and treated at 0 and 2 hrs post-challenge with serial two-fold doses of new cephalosporin antibiotic, imipenem and vancomycin subcutaneously in order to determine the ED50. Male Swiss-Webster mice weighing originally 24.2-26.1 g were obtained from Charles Rivers Labs, Hollister, Calif. Mice were housed 10 per cage and given free access to water and mouse chow.
Staphylococcus aureus ATCC 13709 (Smith diffuse) was grown overnight at 37° C. in Brain-heart Infusion broth (BHIB). The following morning, it was subcultured to fresh BHIB and incubated for 4-5 h at 37° C. The log-phase growth cells were washed once with physiological saline and adjusted to the desired concentration by correlation of absorbency at OD 600 nm with predetermined plate counts (NCCLS, 1994). The cell suspension was mixed with an equal volume of sterile 14% hog-gastric mucin (2). Inoculum was kept in an ice bath until used (<1 h).
Mice were challenged via an injection of 0.5 mL bacterial suspension intraperitoneally. The bacterial challenge was 2.98×10^7 cfu/mouse.
Imipenem (Primaxin IV; Lot 7294A), vancomycin (Vancocin; Lot 8MU60W), and new cephalosporin antibiotic were prepared by serial two-fold dilutions to concentrations of 0.078-0.005 mg/mL, 1.2-0.075 mg/mL, 0.3-0.02 mg/mL, 0.3-0.02 mg/mL and 0.3-0.02 mg/mL respectively in sterile water (1). All antibiotics were administered subcutaneously in 0.1 mL volumes at 0 and 2 hours post-challenge. Concentrations of all compounds are based on the weight of the bioactive ingredients.
The 50% effective dose (ED50) was calculated by the probit method (3) utilizing a program entitled Probit (Nycomed-Salutar).

[12] = system: E. faecalis ATCC 29212; assay: Broth microdilution MIC (NCCLS); assay type: cell-based; settings: Enterococcus faecalis, ATCC29212
Procedure: as §1, §2, §3, §4

[13] = system: S. aureus ATCC 29213; assay: Broth microdilution MIC (NCCLS); assay type: cell-based; settings: Staphylococcus aureus, ATCC29213; S. aureus ATCC 29213; Mueller-Hinton broth, 24 h at 35° C.; read-out: MIC
Procedure: as §1, §2, §3, §4

[14] = system: S. aureus 76 (Meth^R)(lac^+); assay: Broth microdilution MIC (NCCLS); assay type: cell-based; settings: Staphylococcus aureus
Procedure: as §1, §2, §3, §4

Row | Compound | Human serum binding effect (ratio of MIC value determined with and without human serum added) [1] | MIC [2] [µg/mL] | MIC [3] [µg/mL] | MIC [4] [µg/mL] | MIC [5] [µg/mL] | MIC [6] [µg/mL] | MIC [7] [µg/mL] | MIC [8] [µg/mL] | MIC [9] [µg/mL] | MIC [10] [µg/mL] | responders at 0.039 mg/kg ([11]; dose 0.039 mg/kg s.c. at 0 and 2 h post-challenge) [%] | responders at 0.078 mg/kg ([11]; dose 0.078 mg/kg s.c. at 0 and 2 h post-challenge) [%] | responders at 0.156 mg/kg ([11]; dose 0.156 mg/kg s.c. at 0 and 2 h post-challenge) [%] | responders at 0.312 mg/kg ([11]; dose 0.312 mg/kg s.c. at 0 and 2 h post-challenge) [%] | responders at 0.625 mg/kg ([11]; dose 0.625 mg/kg s.c. at 0 and 2 h post-challenge) [%] | MIC [12] [µg/mL] | MIC [13] [µg/mL] | MIC [14] [µg/mL]
1 | NCCSc1nnc(SC2=C(C(=O)O)N3C(=O)[C@@H](NC(=O)/C(=N\O)c4nc(N)sc4Cl)[C@H]3SC2)s1 [Cmpd 1, (7R)-7-[(Z)-2-(2-amino-5-chlorothiazol-4-yl)-2-(hydroxyimino)acetamido]-3-(2-aminoethylthio-1,3,4-thiadiazol-5-ylthio)-3-cephem-4-carboxylic acid] | 64 | 1 (≈ 1.68 µM) | 0.5 (≈ 0.84 µM) | 2 (≈ 3.36 µM) | 1 (≈ 1.68 µM) | 0.13 (≈ 0.218 µM) | 1 (≈ 1.68 µM) | 0.25 (≈ 0.42 µM) | 0.5 (≈ 0.84 µM) | 0.25 (≈ 0.42 µM) | – | – | – | – | – | – | – | –
2 | C[C@@H](O)[C@H]1C(=O)N2C(C(=O)O)=C(SCCN=CN)C[C@H]12 [Imipenem, reference compound] | 2 | – | – | – | – | 0.008 (≈ 0.0267 µM) | – | – | – | – | 20 | 40 | 100 | 100 | 100 | – | – | –
3 | NCCSCc1csc(SC2=C(C(=O)O)N3C(=O)[C@@H](NC(=O)/C(=N\O)c4cccc(N)n4)[C@H]3SC2)n1 [Cmpd 4, (7R)-7-[(Z)-2-(2-aminopyrid-6-yl)-2-(hydroxyimino)acetamido]-3-[4-(2-aminoethylthiomethyl)-1,3-thiazol-2-ylthio]-3-cephem-4-carboxylic acid] | 3 | – | 0.25 (≈ 0.44 µM) | – | 1 (≈ 1.76 µM) | 0.13 (≈ 0.229 µM) | 2 (≈ 3.52 µM) | 0.5 (≈ 0.881 µM) | 4 (≈ 7.05 µM) | 0.13 (≈ 0.229 µM) | – | – | – | – | – | 0.25 (≈ 0.44 µM) | 0.13 (≈ 0.229 µM) | 2 (≈ 3.52 µM)
